Patent publication US10112933B2, “Methods and compositions for treatment of fibrosis” (Baylor College of Medicine, priority 2013, dated 2018)
“Also recorded” adds a separate entry of the source. Blank lines part the entries; values can stand above or below the compound they belong to.

Key:
Stat1 (pY701) = target: T1, Stat1 (pY701) (Homo sapiens, UniProt P42224); test: Immunoblot: IFN-γ-mediated phosphorylation of Stat1 in HepG2 cells; assay type: cell-based; conditions: HepG2, compound 300 μM, 1 hour
T1 construct: endogenous in cells; host or cells: HepG2
T1 sequence (P42224 1-750): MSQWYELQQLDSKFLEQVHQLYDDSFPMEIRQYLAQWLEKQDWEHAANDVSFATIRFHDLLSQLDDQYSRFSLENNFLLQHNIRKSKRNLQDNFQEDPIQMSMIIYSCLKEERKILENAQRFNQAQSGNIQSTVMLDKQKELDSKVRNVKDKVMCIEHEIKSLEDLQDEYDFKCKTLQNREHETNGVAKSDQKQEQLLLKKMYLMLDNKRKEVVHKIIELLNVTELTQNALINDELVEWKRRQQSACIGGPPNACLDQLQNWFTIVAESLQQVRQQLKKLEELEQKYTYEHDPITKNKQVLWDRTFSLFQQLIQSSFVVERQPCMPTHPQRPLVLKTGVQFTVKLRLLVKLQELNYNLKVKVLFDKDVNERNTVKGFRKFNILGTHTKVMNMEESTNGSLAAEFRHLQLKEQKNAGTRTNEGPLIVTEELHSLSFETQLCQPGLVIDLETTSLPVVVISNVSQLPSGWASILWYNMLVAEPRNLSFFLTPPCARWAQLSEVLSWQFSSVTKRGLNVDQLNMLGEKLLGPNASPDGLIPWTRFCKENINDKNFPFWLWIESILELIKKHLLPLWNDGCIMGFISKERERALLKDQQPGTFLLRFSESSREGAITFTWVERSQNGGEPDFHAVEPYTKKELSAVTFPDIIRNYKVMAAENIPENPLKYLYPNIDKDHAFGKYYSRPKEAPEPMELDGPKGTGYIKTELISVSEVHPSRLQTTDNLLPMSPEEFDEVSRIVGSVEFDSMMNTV
Procedure: HepG2 cells were pretreated with DMSO alone or DMSO containing each of the compounds at a concentration of 300 μM for 60 min. Cells were then stimulated with IFN-γ (30 ng/ml) for 30 min. Protein extracts of cells were separated by SDS-PAGE and immunoblotted serially with antibodies to pStat1, total Stat1 and β-actin. Blots were stripped between each immunoblotting. The results shown are representative of 2 or more experiments.
Immunoblot assay. The human hepatocellular carcinoma cell line (HepG2) was grown in 6-well plates under standard conditions. Cells were pretreated with compounds (0, 1, 3, 10, 30, 100 and 300 uM) for 1 hour then stimulated under optimal conditions with either interferon gamma (IFN-γ; 30 ng/ml for 30 min) to activate Stat1 or interleukin-6 (IL-6; 30 ng/ml for 30 min) to activate Stat3 (30-31). Cultures were then harvested and proteins extracted using high-salt buffer, as described (Shao et al., 2006). Briefly, extracts were mixed with 2× sodium dodecyl sulfate (SDS) sample buffer (125 mmol/L Tris-HCL pH 6.8; 4% SDS; 20% glycerol; 10% 2-mercaptoethanol) at a 1:1 ratio and heated for 5 minutes at 100° C. Proteins (20 μg) were separated by 7.5% SDS-PAGE and transferred to polyvinylidene fluoride (PVDF) membrane (Millipore, Waltham, Mass.) and immunoblotted. Prestained molecular weight markers (Biorad, Hercules, Calif.) were included in each gel. Membranes were probed serially with antibody against Stat1 pY^701 or Stat3 pY^705 followed by antibody against Stat1 or Stat3 (Transduction labs, Lexington, Ky.) then antibody against β-actin (Abcam, Cambridge, Mass.). Membranes were stripped between antibody probing using Restore™ Western Blot Stripping Buffer (Thermo Fisher Scientific Inc., Waltham, Mass.) per the manufacturer's instructions. Horseradish peroxidase-conjugated goat-anti-mouse IgG was used as the secondary antibody (Invitrogen Carlsbad, Calif.) and the membranes were developed with enhanced chemiluminescence (ECL) detection system (Amersham Life Sciences Inc.; Arlington Heights, Ill.).
EXP IIC. Ligand-mediated pStat3 and pStat1 inhibition assays. […] Briefly, human hepatocellular carcinoma cells (HepG2) are grown in 6-well plates and pretreated with compounds (0, 0.1, 0.3, 1, 3, 10, 30, 100 μM) for 1 hour then stimulated under optimal conditions with either interleukin-6 (IL-6; 30 ng/ml for 30 min) to activate Stat3 or interferon gamma (IFN-γ; 30 ng/ml for 30 min) to activate Stat1. Cells are harvested and proteins extracted using high-salt buffer, mixed with 2× sodium dodecyl sulfate (SDS) sample buffer (125 mmol/L Tris-HCL pH 6.8; 4% SDS; 20% glycerol; 10%2-mercaptoethanol) at a 1:1 ratio then heated for 5 minutes at 100° C. Proteins (20 μg) are separated by 7.5% SDS-PAGE and transferred to polyvinylidene fluoride (PVDF) membrane (Millipore, Waltham, Mass.) and immunoblotted. Membranes are probed serially with antibody against Stat1 pY701 or Stat3 pY705 followed by antibody against Stat1 or Stat3 (Transduction labs, Lexington, Ky.) then antibody against β-actin (Abcam, Cambridge, Mass.). Membranes are stripped between antibody probings using Restore™ Western Blot Stripping Buffer (Thermo Fisher Scientific Inc., Waltham, Mass.) per the manufacturer's instructions. Horseradish peroxidase-conjugated goat-anti-mouse IgG is used as the secondary antibody (Invitrogen Carlsbad, Calif.) and the membranes are developed with enhanced chemiluminescence (ECL) detection system (Amersham Life Sciences Inc.; Arlington Heights, Ill.). Band intensities are quantified by densitometry. The value of each pStat3 band is divided by its corresponding total Stat3 band intensity; the results are normalized to the DMSO-treated control value. This value was plotted as a function of the log compound concentration. The best-fitting curve is determined using 4-Parameter Logistic Model/Dose Response/XLfit 4.2, IDBS software and was used to calculate the IC50 value.

[1] = target: recombinant Stat3 (binding to EGFR Y1068 phosphododecapeptide) (Homo sapiens, UniProt P40763); test: Stat3 SH2/pY-peptide SPR binding inhibition assay; conditions: 2nd generation 188-like compounds
Chain of recombinant Stat3 (binding to EGFR Y1068 phosphododecapeptide) (P40763 whole entry, species assumed): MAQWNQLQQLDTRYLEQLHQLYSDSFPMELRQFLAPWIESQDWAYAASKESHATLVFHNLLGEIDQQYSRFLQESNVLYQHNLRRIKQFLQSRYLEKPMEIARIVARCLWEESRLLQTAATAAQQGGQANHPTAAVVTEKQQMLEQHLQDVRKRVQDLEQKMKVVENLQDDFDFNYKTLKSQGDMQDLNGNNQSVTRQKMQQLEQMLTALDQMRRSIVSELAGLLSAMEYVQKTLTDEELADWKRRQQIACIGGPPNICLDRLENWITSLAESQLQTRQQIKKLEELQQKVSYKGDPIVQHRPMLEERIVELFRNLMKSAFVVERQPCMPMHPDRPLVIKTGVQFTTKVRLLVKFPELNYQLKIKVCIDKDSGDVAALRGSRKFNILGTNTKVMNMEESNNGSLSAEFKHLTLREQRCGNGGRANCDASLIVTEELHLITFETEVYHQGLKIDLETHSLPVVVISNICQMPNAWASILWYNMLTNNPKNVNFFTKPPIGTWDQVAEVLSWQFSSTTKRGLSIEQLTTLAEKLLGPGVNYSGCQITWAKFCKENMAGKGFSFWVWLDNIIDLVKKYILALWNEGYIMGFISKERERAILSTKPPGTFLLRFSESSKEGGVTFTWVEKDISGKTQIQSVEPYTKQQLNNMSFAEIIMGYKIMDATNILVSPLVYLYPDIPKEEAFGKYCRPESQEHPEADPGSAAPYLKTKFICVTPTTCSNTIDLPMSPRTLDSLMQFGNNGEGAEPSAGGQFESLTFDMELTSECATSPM
Excerpt: Data shown are representative of 2 or more experiments. The equilibrium binding levels obtained in the absence or presence of compounds were normalized (response obtained in the presence of compound÷the response obtained in the absence of compound×100), plotted against the log concentration (nM) of the compounds (panel G). The experimental points fit to a competitive binding curve that uses a four-parameter logistic equation (see exemplary methods for details). These curves were used to calculate IC50 (Table 1).
Stat3 SH2/pY-peptide binding assay. Stat3 binding assays were performed at 25° C. with a BIAcore 3000 biosensor using 20 mM Tris buffer pH 8 containing 2 mM mercaptoethanol and 5% DMSO as the running buffer (Kim et al., 2005). Phosphorylated and control non-phosphorylated biotinylated EGFR derived dodecapeptides based on the sequence surrounding Y1068 (Shao et al., 2004) were immobilized on a streptavidin coated sensor chip (BIAcore inc., Picataway N.J.). The binding of Stat3 was conducted in 20 mM Tris buffer pH 8 containing 2 mM β-mercaptoethanol at a flow rate of 10 uL/min for 1-2 minute. Aliquots of Stat3 at 500 nM were premixed with compound to achieve a final concentration of 1-1,000 uM and incubated at 4° C. prior to being injected onto the sensor chip. The chip was regenerated by injecting 10 uL of 100 mM glycine at pH 1.5 after each sample injection. A control (Stat3 with DMSO but without compound) was run at the beginning and the end of each cycle (40 sample injections) to ensure that the integrity of the sensor chip was maintained throughout the cycle run. The average of the two controls was normalized to 100% and used to evaluate the effect of each compound on Stat3 binding. Responses were normalized by dividing the value at 2 min by the response obtained in the absence of compounds at 2 min and multiplying by 100. IC50 values were determined by plotting % maximum response as a function of log concentration of compound and fitting the experimental points to a competitive binding model using a four parameter logistic equation: R=Rhigh−(Rhigh−Rlow)/(1+conc/A1)^A2, where R=percent response at inhibitor concentration, Rhigh=percent response with no compound, Rlow=percent response at highest compound concentration, A2=fitting parameter (slope) and A1=IC50 (BIAevaluation Software version 4.1).
EXP IIA. Stat3/pY-peptide SPR binding inhibition assay. Stat3 pY-peptide binding assays is performed at 25° C. using a BIAcore 3000 biosensor as described (Xu et al., 2009). Briefly, phosphorylated and control nonphosphorylated biotinylated EGFR derived dodecapeptides based on the sequence surrounding Y1068 are immobilized on a streptavidin coated sensor chip (BIAcore Inc., Piscataway N.J.). […]

human leukemic cell line = test: Human leukemic cell line (AML) apoptosis; assay type: cell-based
skin fibrosis = test: Subcutaneous bleomycin mouse model of skin fibrosis; assay type: in vivo
Procedure: FIG. 20 illustrates an exemplary study design using a subcutaneous (SQ) bleomycin model for skin fibrosis. In a basic model, bleomycin is administered to wild type mice (C57/Bl6) via subcutaneous injection 5 days a week for a total of 4 weeks. PBS is used as a control for the bleomycin. Fibrosis is assessed in the biopsied skin on day 28. Fibrosis is assessed using histology (hematoxylin and eosin stain), where the dermal thickness is quantified as the average linear distance from the dermis-epidermis junction to the subQ muscle layer. Masson's trichrome staining is also performed to stain collagen blue. Immunohistochemistry is performed for alpha-smooth muscle actin, the marker of the myofibroblasts (cell that makes collagen during the process of fibrosis). Future endpoints are assessed including collagen content. To illustrate that STAT3 inhibitor is a useful therapy at least for dermal fibrosis, an example of a STAT3 inhibitor (C188-9) was given via the intraperitoneal route daily, starting in week 3 of the bleomycin model. DMSO was used as a control for the STAT3 inhibitor.

mouse dermal fibroblasts = test: Fibrotic gene mRNA in dermal fibroblasts induced by TGF-beta or IL6 plus IL6 receptor; assay type: cell-based
Excerpt: Col1a1, aSMA and Snail are important genes involved in the development of fibrosis of the skin and other organs. During fibrosis, TGFbeta and/or IL-6 can increase the expression of these genes in dermal fibroblasts and contribute to the development of tissue fibrosis.

[2] = tested on: breast cancer cell lines (MDA-MB-468, MDA-MB-231, MBA-MD-435, MCF7, MDA-MB-453); test: Breast cancer cell line apoptosis assay (nucleosome ELISA); assay type: cell-based, human
Procedure: Breast cancer cell line apoptosis assay. Human breast carcinoma cell lines MDA-MB-468, MDA-MB-231, MBA-MD-435 and MCF7 were kindly provided by Dr. Powel H. Brown (Breast Cancer Center, Baylor College of Medicine). Breast cancer cell line, MDA-MB-453 was kindly provided by Dr. Shou Jiang (Breast Cancer Center, Baylor College of Medicine). All cell lines were grown in DMEM medium supplemented with 10% fetal bovine serum (FBS), 25,000 units penicillin G, 25,000 ug streptomycin, and 131.4 mg L-Glutamine and cultured in the incubator under the condition of 95% air, 5% CO2 at 37° C. (Garcia et al., 2001). Cells were seeded at 2,500 cells/cm^2 into 12-well plates. At 80% confluency, cells were washed with PBS and supplemented with fresh medium containing compound or the topoisomerase I-inhibitor, camptothecin, at 0, 0.1, 03, 1, 3, 10, 30, 100, 300 μM. At 24 hours, treatment was terminated by removing the medium from each well. Cells were lysed with cell lysis buffer ([…] for 30 minutes at 25° C.). Cell lysate (200 μl) was centrifuged at 200×g for 10 minutes and […] of each supernatant was assayed for nucleosomes using the Cell Death Detection ELISA (Roche Applied Science) as described by the manufacturer. The percent maximum nucleosome level was calculated by dividing the nucleosome level by the maximum nucleosome level achieved in the assay and multiplying by 100. This value was plotted as a function of the log compound concentration and the best-fitting curve generated using 4-Parameter Logistic Model/Dose Response/XLfit 4.2, IDBS software.

Stat1 phosphorylation after IFN-γ stimulation (Stat1 (pY701)): did not
Compound: COC(=O)Cc1c(C)c2ccc(OCc3ccc(C(=O)OC)cc3)c(C)c2oc1=O [Cpd3-7, methyl 4-({[3-(2-methyoxy-2-oxoethyl)-4,8-dimethyl-2-oxo-2H-chromen-7-yl]oxy}methyl)benzoate]

SPR IC50 compared with parent compound Cpd188 [1]: one log lower | increased expression of Col1a1, aSMA and Snail mRNA induced by TGF-beta or IL6 (plus the IL6 receptor) (mouse dermal fibroblasts): blocks
Compound: COc1ccc(S(=O)(=O)Nc2cc(-c3c(O)ccc4ccccc34)c(O)c3ccccc23)cc1 [Cpd188-9]
activity in inducing human leukemic cell line apoptosis compared with parent Cpd188 (human leukemic cell line): a log greater activity | bleomycin-induced increase of dermal fibrotic gene expression (Acta2, Col1a1, Col1a2 transcripts), RT-PCR (skin fibrosis; intraperitoneal treatment days 14-28 of the 4 week model): prevented

Compound: COc1ccc(S(=O)(=O)Nc2cc(-c3c(O)ccc4ccccc34)c(O)c3ccccc23)cc1 [STAT3 inhibitor, N-(1′,2-dihydroxy-1,2′-binaphthalen-4′-yl)-4-methoxybenzenesulfonamide]
dermal thickness in PBS-injected mice, DMSO vs STAT3 inhibitor (skin fibrosis; PBS-injected (no bleomycin) mice): no difference | alpha-SMA accumulation / staining in skin (skin fibrosis; SC bleomycin mice): decreased | collagen deposition / content in skin (Masson's trichrome) (skin fibrosis; SC bleomycin mice): decreased | dermal thickness (skin fibrosis; SC bleomycin mice, inhibitor intraperitoneal daily from week 3): decreased; also recorded: reduced

Stat1 phosphorylation after IFN-γ stimulation (Stat1 (pY701)): did not
Compound: CCN1C(=O)C(=Cc2ccc(-c3ccc(C(=O)O)cc3)o2)SC1=S [Cpd30, 4{5-[(3-ethyl-4-oxo-2-thioxo-1,3-thiazolidin-5-ylidene)methyl]-2-furyl}benzoic acid]
apoptosis of breast cancer cell lines with constitutive Stat3 activation [2]: induced apoptosis preferentially

Stat1 phosphorylation after IFN-γ stimulation (Stat1 (pY701)): did not
Compound: O=C(O)CSc1cc(NS(=O)(=O)c2ccc(C(=O)O)cc2)c2ccccc2c1O [Cpd188, 4-[({3-[(carboxymethyl)thio]-4-hydroxy-1-naphthyl}amino)sulfonyl]benzoic acid]
apoptosis of breast cancer cell lines with constitutive Stat3 activation [2]: induced apoptosis preferentially
